Laboratory results reported in patent US8257931B2 (President and Fellows of Harvard College, priority 2005, dated 2012).
Entries after “also recorded” stand apart in the source; their conditions may differ. Where two headings read alike, the source gives them in different places.

Key:
A549 cells = assay: A549 cytotoxicity, CellTiter-Glo luminescence assay; settings: A549, 16 hours, concentration range of anti-proliferative activity
Protocol: To determine if this was simply due to toxicity, cell viability after compound treatment was determined using a luminescence assay (FIG. 8B).

A549 lung cancer cells = assay: A549 proliferation, sulforhodamine B (SRB) assay; type: cell-based, human
Protocol: FIG. 28 is a graph showing the results of a cell proliferation assay. A549 cells, which are human lung cancer cells, are grown in plates for five days in medium containing 5% FCS and compound. The number of cells is quantified by staining with sulforhodamine B.

IRES driven translation = assay: In vitro translation of dual luciferase reporter in rabbit reticulocyte lysate, CrPV IRES driven firefly luciferase; type: biochemical
Description: (§1) To determine the relative effects of the compound on cap dependent and independent translation, we utilized a bicistronic mRNA construct containing the gene for Renilla luciferase under the control of the cap and the message for firefly luciferase under the control of the cricket paralysis virus IRES (FIG. 2A). […] A dicistronic reporter construct containing the Renilla reniformis luciferase sequence after the 5′ UTR followed by the CrPV IRES and the firefly luciferase sequence was used to build a reporter construct plasmid. The reporter construct plasmid was linearized with BamHI and transcribed in vitro with an ARCA cap using the mMessage Machine T7 Ultra Kit (Ambion). In vitro translation reactions were carried out using Red Nova reticulocyte lysate (Novagen) with 2 mM magnesium acetate and […] potassium acetate, incubated at 30 degrees C. for 90 minutes. Translation of reporter genes was measured using the Dual-Glo luciferase assay (Promega) in a Wallac Victor^2 plate reader.
(§2) In addition to structurally characterizing the binding of our hit compounds, biological activities of the compounds was evaluated. […] To test this hypothesis in vitro, a translation assay in rabbit reticulocyte lysate was carried out. A dicistronic reporter construct containing a cap-dependent Renilla luciferase and a cricket paralysis virus IRES driven firefly luciferase was utilized to measure the relative affect of a compound on both translation mechanisms.
(§3) A functional cell free assay determined the relative effects of the compounds on cap- and IRES-dependent translations. This assay involved the in vitro translation of bicistronic mRNA reporter construct encoding for renilla luciferase in a cap-dependent and for firefly luciferase in a cap independent manner, the later driven by cricket paralysis virus IRES.

[1] = tested on: human lung cancer cell line (A549); assay: A549 cell growth inhibition, Alamar Blue assay; type: cell-based
Protocol: (§4) Adherent human solid tumor cells were plated and maintained for 3 days in the presence of increasing concentration of the compounds, and cell proliferation was measured by alamar blue assay, where 10% of commercially available solution is added to the cell medium and measure fluorescence in 96-well plates at wavelength of 530 nm excitation and 590 nm emission. The data calculations were carried out as previously described.
(§5) Compounds were further tested for cell growth inhibition in a human lung cancer cell line (A549) and conlon cancer cell line (HT29). The Alamar Blue assay, which specifically measures the inhibition of cell proliferation, was used to assess the GI50's of the compounds.

Jurkat cells [2] = assay: Jurkat cell viability by intracellular ATP (CellTiterGlo); type: cell-based, human; settings: 24 hours
Protocol: (§6) Such results can result from pro-apoptotic and/or anti-proliferative activity in these cell lines. Cell viability was measured by treatment of Jurkat cells with compound for 24 hours and determination of intracellular ATP using the CellTiterGlo assay (Promega). […] After fixation and staining with PI cellular DNA content was determined by FACS analysis in a FACSCalibur machine (Beckton Dickinson). Nuclear morphology after 24 hour EG1-1 treatment was visualized by staining of cells with Hoechst 33342 dye and fluorescence microscopy.

Jurkat cells [3] = assay: Western blotting of Jurkat cell extracts for protein levels; settings: 8 hours
Protocol: (§7) For analysis of cellular protein and mRNA levels, Jurkat cells were grown for 8 hours in the presence of the compound. Extracts for Western blotting were prepared from half of the cells by multiple freeze-thaw cycles. β-actin, Bcl-xL, and c-myc were detected using polyclonal antibodies (Cell Signaling). For the remaining cells the PARIS kit (Ambion) was used to isolate total nuclear and total cytoplasmic RNA fractions. The integrity of the fractionation was confirmed by agarose gel electrophoresis (as prescribed by Ambion). Contaminating DNA was removed using the DNA-free kit (Ambion), and cDNA was prepared using MMLV reverse transcriptase (Promega). The relative abundance of the c-myc and Bcl-xL messages compared to β-actin was determined by real-time PCR with validated QuantiTec probes and the QuantiTec SYBR Green Kit (Qiagen), using a thermocycler from Applied Biosystems.

[4] = tested on: cap-dependent translation; assay: In vitro translation of dual luciferase reporter in rabbit reticulocyte lysate, cap-dependent Renilla luciferase; type: biochemical
Description: as §1, §2, §3

Jurkat cells [5] = assay: Real-time PCR of c-myc and Bcl-xL mRNA relative to β-actin in Jurkat cells; settings: 8 hrs
Protocol: as §7

Jurkat cells [6] = assay: Apoptosis in Jurkat cells: sub-G1 DNA content by FACS, Hoechst 33342 nuclear morphology; type: cell-based, human
Protocol: as §6

HT29 colon cancer cells = assay: HT29 cell growth, Alamar Blue assay; type: cell-based; settings: Homo sapiens, HT-29
Protocol: as §4
Med. Chem. Lett. 14: 2547-50, 2004. […] .
as §5

IC50 (A549 lung cancer cells; Homo sapiens, A549, FIG. 8A, read-out: IC50, anti-proliferative activity in A549 cells): ~6 µM
IRES driven / cap-independent translation (firefly luciferase) (IRES driven translation; listed as compound 1): enhance
GI50 [1]: 5 µM
cap-dependent translation (Renilla luciferase) ([4]; listed as compound 1): inhibit dose-dependently
IC50 (HT29 colon cancer cells): 9 µM
GI50 (HT29 colon cancer cells; Alamar Blue assay): 9 µM
SMILES: O=C(O)/C(Cc1ccccc1[N+](=O)[O-])=N/Nc1nc(-c2ccc(Cl)c(Cl)c2)cs1 [EGI-1, 2-{[4-(3,4-Dichloro-phenyl)-thiazol-2-yl]-hydrazono}-3-(2-nitro-phenyl)-propionic acid]
cytotoxicity (cell viability after compound treatment) (A549 cells): No significant cytotoxicity
proliferation of A549 cells (in words) (A549 lung cancer cells; SRB assay, five day growth period): inhibits proliferation
IRES driven / cap-independent translation (firefly luciferase) (IRES driven translation): does not inhibit; also recorded: not inhibited and in fact significantly enhanced; also recorded: enhanced translation from the CrPV IRES
cell viability (cellular ATP level) (Jurkat cells [2]): induces loss of cell viability; also recorded: dose-dependent loss of cell viability
effect on strong mRNAs such as β-actin (protein level) (Jurkat cells [3]): little or no effect
production of proteins encoded by weak mRNAs (Bcl-xL, c-myc) (Jurkat cells [3]): inhibits the production
cap-dependent translation (Renilla luciferase) [4]: inhibits cap-dependent translation; also recorded: inhibited in a dose-dependent manner; also recorded: inhibited translation of the cap-dependent luciferase
transcriptional level, transport or stability of c-myc and Bcl-xL mRNA (Jurkat cells [5]): does not affect
apoptosis induction (Jurkat cells [6]): induces apoptosis; also recorded: pro-apoptotic activity
sub-G1 fraction on co-treatment with zVAD-FMK (Jurkat cells [6]; 60 μM with 100 μM zVAD-FMK, 24 hours): suppressed
nuclear morphology (Hoechst 33342) (Jurkat cells [6]; 60 μM, 24 hours): induces fragmented nuclear morphology
sub-G1 fraction (fragmented DNA) (Jurkat cells [6]; 60 μM, 24 hours): induces DNA fragmentation; also recorded: large increase in the sub-G1 fraction
